What was measured:
myc-tagged-A53T-α-syn = type: cell-based; conditions: PC-12 cells after 1 μg/ml Dox induction; hederagenin 40 or 60 μM, α-hederin 12 or 24 μM
Text: (§1) Protein extraction and Western blots: Cells were harvested by RIPA lysis buffer (Cell Signaling Technologies, Beverly, Mass., USA), and with the final protein concentrations measured by using Bradford reagent (Bio-Rad, Hercules, Calif., USA). After electrophoresis for protein band separation, proteins were transferred to the nitrocellulose membrane which was blocked with 5% non-fat dried milk immediately after protein transfer. Corresponding primary antibodies, followed by the addition of HRP-conjugated secondary antibodies, were incubated with the protein membrane with constant shaking. Visualization of protein band pattern was performed by using the ECL Western Blotting Detection Reagents (Invitrogen, Paisley, Scotland). Band intensities were quantified by using the software, ImageJ (ImageJ 1.46r; National Institutes of Health, Bethesda, Md., USA).

[1] = test system: PC-12 cells treated with 0.5 mM MPTP; test: Rescue from MPTP-induced cell death in PC-12 cells (MTT, Annexin V flow cytometry); type: cell-based; conditions: cell density, MTT assay and flow cytometry
Method: Cytotoxicity Assays and Flow Cytometry: Cell viability was measured by using the MTT method (3-[4,5-dimethylthiazol-2-yl]-2,5-diphenyl tetrazolium bromide) as described previously (Wu, A. G. et al. Int J Mol Sci 2013, 14:22618-22641). Absorbance (OD) of cell samples was obtained by spectrophotometer at 570 nm. The percentage of cell viability was calculated by using the formula: cell viability (%)=cells numbertreated/cells numberDMSO control×100. All MTT data were calculated from three independent experiments. Cell viability was also measured by flow cytometry using the Annexin V staining kit (BD Biosciences, San Jose, Calif., USA). In brief, PC-12 cells treated with hederagenin and α-hederin were analyzed by multiparametric flow cytometry using FITC-Annexin V and/or propidium iodide staining (BD Biosciences, San Jose, Calif., USA) by following manufacturer's instructions. Flow cytometry was then carried out using a FACSCalibur flow cytometer (BD Biosciences). Data acquisition and analysis were performed with CellQuest (BD Biosciences).

[2] = test system: GFP-LC3 transfected Atg7+/+ and Atg7−/− MEFs; test: GFP-LC3 puncta formation in ATG7 wild-type and ATG7 deficient MEFs; type: cell-based, mouse; conditions: α-hederin 12 or 24 μM, hederagenin 40, 60 or 80 μM, 24 h
Method: Immunocytochemistry and fluorescence microscopy: In brief, GFP-LC3 puncta formation was analyzed as described previously (Wu, A. G. et al. Int J Mol Sci 2013, 14:22618-22641). Firstly, cells were plated on top of coverslips inside a 6-well culture dish. After compounds treatments, cells were fixed with 4% paraformaldehyde for 20 min. FluorSave™ mounting media (Calbiochem, San Diego, Calif., USA) was used to mount the coverslips with cells before subjected to fluorescence microscopic analysis. The number of GFP-positive cells, and cells with GFP-LC3 puncta formation was examined and counted under the Nikon ECLIPSE 80i microscope by using 40× of magnification. In order to standardize the quantitation, the percentage of cells with autophagy induction was defined by counting the number of cells with punctate GFP-LC3 fluorescence in GFP-positive cells. A minimum of 1000 GFP-positive cells from 3 randomly selected fields were scored.

[3] = test system: EGFP-HTT 74 (mutant huntingtin); test: Mutant huntingtin (EGFP-HTT 74) clearance in transfected PC-12 cells, Western blot; type: cell-based; conditions: EGFP-HTT 74 transfected PC-12 cells; hederagenin 40-80 μM, α-hederin 12-24 μM
Text: as §1, with “Visualization of protein band pattern was performed by using the ECL Western Blotting Detection Reagents (Invitrogen, Paisley, Scotland).” left out
Cells were then treated with either hederagenin or α-hederin for a further 24 h to determine the protein level of mutant huntingtin by Western blot analysis using an antibody against GFP (Ravikumar, B. et al., Nat Genet 2004, 36:585-595). On the other hand, ATG7 wild-type and ATG7-deficient MEF cells transfected with EGFP-HTT 74 were analyzed for the formation of huntingtin inclusion after 24 h of hederagenin or α-hederin treatment. Percentages of cells with cytoplasmic GFP-huntingtin (GFP-HTT74) inclusion formation were counted by the number of cells with GFP inclusions over the total number of GFP-positive cells in the same field under fluorescent microscopic analysis. […]

p-p70S6K = test: Western blot of p70S6K phosphorylation (downstream target of mTOR); type: cell-based; conditions: hederagenin 0-80 μM, α-hederin 0-24 μM, 24 h
Text: as §1

[4] = UHPLC/MS/MS measurement of hederagenin and α-hederin level in mice brain tissues; type: in vivo
Method: Whole mice brains were collected and weighted after sacrificed. Each brain tissue was put into 500 μl of NaCl solution and ultra-sonicated for 40 s to give the whole tissue homogenate. Each tube of homogenate was set to a final volume of 800 μl. […] The supernatant was collected and remaining precipitate was re-extracted with 200 μl of methanol. The collected supernatant was then combined and dried by using dry nitrogen blowing instrument. The residue was reconstituted with 200 μl of 30% acetonitrile, and then 10 μl of the aliquot was injected into the LC-MS/MS system (Su, F. L. et al., Chromatographia 2009, 69:207-213). […] The measurement of dopamine (DA), hederagenin and α-hederin level in mice brain tissues: Internal standard (IS, DHBA), DA, hederagenin and α-hederin level in the mouse brain, were quantified using UHPLC/MS/MS system which includes Agilent 1290 Infinity UHPLC, and Agilent 6460 Triple Quadrupole, equipped with an electrospray ionization interface used to generate positive ions for the determination of DA; negative ion mode for the measurement of hederagenin and α-hederin in mouse brains. The compounds in plasma samples were analyzed by using the Agilent Zorbax Eclipse Plus C-18 column with a particle size of 1.8 μm (flow rate: 0.35 mL/min). […] Data were analyzed by using Agilent MassHunter Workstation software B.01.03. […]

Row | SMILES | clearance of overexpressed mutant A53T α-syn (myc-tagged-A53T-α-syn) | rescue from MPTP-induced cell death [1] | GFP-LC3-II puncta formation in ATG7-wild type MEFs [2] | clearance of overexpressed huntingtin in PC-12 cells [3] | phosphorylation of p70S6K (p-p70S6K) | level detected in the brain tissue ([4]; mice with 80 mg/kg HH-EF′ treatment, oral) [nM] | level detected in the brain tissue ([4]; C57BL/6, mouse, in vivo, po, 80 mg/kg) [nM]
1 | C[C@@H]1O[C@@H](O[C@H]2[C@H](O[C@H]3CC[C@@]4(C)[C@@H](CC[C@]5(C)[C@@H]4CC=C4[C@@H]6CC(C)(C)CC[C@]6(C(=O)O)CC[C@]45C)[C@]3(C)CO)OC[C@H](O)[C@@H]2O)[C@H](O)[C@H](O)[C@H]1O [α-hederin] | facilitate the clearance of the overexpressed mutant α- | rescue cells from MPTP-induced cell death | significantly increase the GFP-LC3-II puncta formation | facilitate the clearance of overexpressed huntingtin | reduced phosphorylation of p70S6K | 2.98 | 
2 | CC1(C)CC[C@]2(C(=O)O)CC[C@]3(C)C(=CC[C@@H]4[C@@]5(C)CC[C@H](O)[C@@](C)(CO)[C@@H]5CC[C@]43C)[C@@H]2C1 [hederagenin] | facilitate the clearance of the overexpressed mutant α- | rescue cells from MPTP-induced cell death | significantly increase the GFP-LC3-II puncta formation | facilitate the clearance of overexpressed huntingtin | reduced phosphorylation of p70S6K |  | 3.39
